In PubChem BioAssay (NCI):
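These data come from cells grown in 96-well plates and exposed to compound for 48 hours at five concentrations. At the GI50, growth is halved. TGI marks complete inhibition of growth.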 Where a SMILES comes first, the peptide text is derived from it. [ ]: non-standard residue; d: D form. The star is where a group is joined. ξ: configuration not given here. ξF = NC(Cc1ccccc1)C(=O)O; Cbz = O=C(OCc1ccccc1)*; Aib = CC(C)(N)C(=O)O

Columns and labels:
Assay in all cases: inhibition of tumour cell growth, NCI panel, 48 h
RXF 393 renal = test system: RXF 393 renal
UACC-62 melanoma = test system: UACC-62 melanoma
OVCAR-4 ovarian = test system: OVCAR-4 ovarian
MDA-MB-435 = test system: MDA-MB-435
K-562 leukemia = test system: K-562 leukemia
EKVX NSCLC = test system: EKVX NSCLC
ACHN renal = test system: ACHN renal
SW-620 colon = test system: SW-620 colon
NCI/ADR-RES ovarian = test system: NCI/ADR-RES ovarian
RPMI-8226 leukemia = test system: RPMI-8226 leukemia

SMILES | TGI (RXF 393 renal) | TGI (UACC-62 melanoma) | TGI (OVCAR-4 ovarian) | TGI (MDA-MB-435) | TGI (K-562 leukemia) | TGI (EKVX NSCLC) | TGI (ACHN renal) | TGI (SW-620 colon) | TGI (NCI/ADR-RES ovarian) | TGI (RPMI-8226 leukemia) | GI50 (NCI/ADR-RES ovarian) | GI50 (RPMI-8226 leukemia) | GI50 (OVCAR-4 ovarian) | GI50 (MDA-MB-435) | GI50 (K-562 leukemia) | GI50 (EKVX NSCLC) | GI50 (ACHN renal) | GI50 (SW-620 colon)
CCNC(=O)Nc1cccc(C)n1 | > 100 µM | > 100 µM | > 100 µM | > 100 µM | > 100 µM | > 100 µM | > 100 µM | > 100 µM |  |  |  |  |  |  |  |  |  | 
CCOC(=O)/C(O)=C1\C(=O)N(C)C(=O)C1c1ccc(OC)c(OC)c1 (stereo not drawn) | > 100 µM | > 100 µM | > 100 µM |  | > 100 µM | > 100 µM |  | > 31.6 µM | > 100 µM | > 100 µM |  |  |  |  |  |  |  | 
COc1ccc2[nH]c3c(c2c1)CCN(C)CC3 |  | > 100 µM | > 100 µM |  | > 100 µM | > 100 µM | > 100 µM | > 100 µM |  | > 100 µM |  |  |  |  |  |  |  | 
CN(C)C(=S)N/N=C\C=N/NC(=S)N(C)C |  | 22 µM | > 100 µM | > 100 µM | > 100 µM | > 100 µM |  | > 100 µM |  | > 100 µM |  |  |  |  |  |  |  | 
CCC(C)[C@H](NC(=O)N[C@H](C)c1ccccc1)C(=O)OC (stereo partly drawn) |  | > 100 µM | > 100 µM | > 100 µM | > 100 µM | > 100 µM | > 100 µM | > 100 µM |  | > 100 µM |  |  |  |  |  |  |  | 
O=C(NCCN(CCNC(=O)c1cccc(=O)n1O)CCN(CCNC(=O)c1cccc(=O)n1O)CCNC(=O)c1cccc(=O)n1O)c1cccc(=O)n1O | > 100 µM | > 100 µM | > 100 µM | > 100 µM | > 100 µM |  | > 100 µM | > 100 µM | > 100 µM | > 100 µM |  |  |  |  |  |  |  | 
Cn1ccnc1Sc1ccc(/C=N/NC(=O)c2ccccc2O)cc1[N+](=O)[O-] | > 100 µM | > 100 µM | > 100 µM | > 100 µM |  | > 100 µM | > 100 µM | > 100 µM | > 100 µM | 41.2 µM |  |  |  |  |  |  |  | 
CN(C)c1ccc(/C=N/Nc2nc3ccccc3c(=O)n2-c2ccccc2)cc1 | > 100 µM | 93.6 µM | 70.2 µM | > 100 µM | > 100 µM |  | > 100 µM | > 100 µM | > 100 µM |  |  |  |  |  |  |  |  | 
CCN(CC)Cc1nc2sc3c(c2c(=O)n1-c1ccccc1)CCCC3 | 37.6 µM | 30.4 µM | 97.4 µM |  | > 100 µM | 79.9 µM | 55.2 µM | 37.3 µM | 62.1 µM | 81.9 µM |  |  |  |  |  |  |  | 
C=CC(=O)N1C/C(=C\c2ccc(N(C)C)cc2)C(=O)/C(=C/c2ccc(N(C)C)cc2)C1 | > 100 µM | > 100 µM | > 100 µM | > 100 µM | > 100 µM | > 100 µM | > 100 µM | > 100 µM | > 100 µM |  |  |  |  |  |  |  |  | 
N#CC1=C2Sc3ccccc3N2[C@H](c2ccccc2)[C@H]2COC(=O)[C@@H]12 | > 100 µM | > 100 µM | > 100 µM | > 100 µM |  | > 100 µM | > 100 µM | > 100 µM | > 100 µM | 87.2 µM |  |  |  |  |  |  |  | 
CC(=O)O[C@H]1CC[C@@]2(C)C(=CC[C@@H]3[C@@H]2CC[C@]2(C)C(c4cccnc4)=CC[C@@H]32)C1 |  |  | > 100 µM | > 100 µM | > 100 µM | > 100 µM | 43.9 µM | > 100 µM | 34.2 µM | 8.07 µM | 3.99 µM | 2.81 µM | 4.61 µM | 3.03 µM | 4.04 µM | 4.62 µM | 4.88 µM | 5.81 µM
Cc1c(-c2c(C)c3ccccc3n2S(=O)(=O)c2ccccc2)n(S(=O)(=O)c2ccccc2)c2ccccc12 |  | > 100 µM | > 100 µM | > 100 µM | > 100 µM | > 100 µM | > 100 µM | > 100 µM | > 100 µM | > 100 µM |  |  |  |  |  |  |  | 
CCCCCc1cc(OC(=O)c2c(O)cc(OC)cc2CCCCC)cc(O)c1C(=O)O | 30.8 µM | 28.9 µM | 41.3 µM |  | > 100 µM | 39.9 µM | 35.9 µM | 36 µM |  | 71.2 µM |  |  |  |  |  |  |  | 
CC(C)(NC(=O)OCc1ccccc1)C(=O)NC(Cc1ccccc1)C(=O)O (stereo not drawn) (Cbz-[Aib]-[ξF]-OH) |  | > 100 µM | > 100 µM | > 100 µM | > 100 µM |  |  | > 100 µM | > 100 µM | > 100 µM |  |  |  |  |  |  |  | 
O=C1C(Br)=CC2([N+](=O)[O-])CCNc3c(O)c4c5c(c3C2=C1Br)=NCCC=5C=N4 (stereo not drawn) | 7.76 µM | 3.14 µM | 3.7 µM |  | 2.33 µM | 7.43 µM |  | 4 µM | 6.52 µM | 0.761 µM |  |  |  |  |  |  |  | 
CCCC/C=C1\CCC(CN2CCCCC2)C1=O (stereo not drawn) | 18.1 µM | 24.8 µM | 48 µM | > 100 µM | 22.8 µM | 31.9 µM | 44.3 µM | 14.4 µM | > 100 µM |  |  |  |  |  |  |  |  | 
